Test results: patent US7696245B2, “Fluorescent probe for zinc” (Sekisui Medical Co., Ltd., priority 2003, dated 2010)

Experiments:
[1] = test system: CHO cells; experiment: Fluorescence intensity when zinc ions were intracellularly introduced into CHO cells; type: cell-based
Experimental: Changes in fluorescence intensity were investigated when zinc ions in various concentrations were intracellularly introduced by using CHO cells. […] After the cells were washed with PBS(−) 3 times, the reagent was added as shown in the following Table 1, and changes in fluorescence intensity were measured.

[2] = read-out: Kd value for zinc ions; cited from earlier work
[3] = Rate constant of complex formation with zinc ions (stopped-flow); type: physicochemical; conditions: 1 μM compound, 50 μM zinc ions, 100 mM HEPES buffer (pH 7.4), 25° C.
Experimental: The rate constant of the formation of a complex between zinc ions and each of Compounds 8, 13, 17, and 22 were investigated. Changes with time of fluorescence intensity were measured in a stopped-flow manner after the compound was mixed in 100 mM HEPES buffer (pH 7.4) at 25° C. to adjust the final concentration of the compound to 1 μM and that of zinc ions to 50 μM. The rate constant of complex formation was calculated by using the graph to give 1.6×10^6 M^−1s^−1 for Compound 8, 1.4×10^6 M^−1s^−1 for Compound 13, 7.8×10^4 M^−1s^−1 for Compound 17, and 1.3×10^6 M^−1s^−1 for Compound 22. […] Therefore, it is understood that zinc ions can be detected in a very short period of time, and rapid changes in the concentration of zinc ions can also be detected by using these compounds.

SMILES	rate constant of complex formation [3]	also measured
CC(=O)Oc1ccc2c(c1)Oc1cc(OC(C)=O)ccc1C21OC(=O)c2ccc(NCCN(Cc3ccccn3)Cc3ccccn3)cc21 [ZnAF-2DA, reference compound]	–	zinc ion concentration at which fluorescence intensity reached the plateau ([1]; CHO cells dyed with 10 μM probe, 100 μM pyrithione plus ZnSO4): 3 µM; Kd [2]: 2.7 nM
Cc1cccc(CN(CCNc2ccc(C(=O)O)c(-c3c4ccc(=O)cc-4oc4cc(O)ccc34)c2)Cc2ccccn2)n1 [Compound 22]	1.3e+06 M⁻¹ s⁻¹	–
O=C(O)c1ccc(NCCN(CCc2ccccn2)CCc2ccccn2)cc1-c1c2ccc(=O)cc-2oc2cc(O)ccc12 [Compound 17]	78000 M⁻¹ s⁻¹	–
CC(=O)Oc1ccc2c(c1)Oc1cc(OC(C)=O)ccc1C21OC(=O)c2ccc(NCCN(CCc3ccccn3)Cc3ccccn3)cc21 [Compound 28]	–	change of fluorescence intensity of dyed cells with elevation of zinc ions introduced ([1]; CHO cells, 100 μM pyrithione, 0.3-300 μM ZnSO4): increased stepwise
O=C(O)c1ccc(NCCN(CCc2ccccn2)Cc2ccccn2)cc1-c1c2ccc(=O)cc-2oc2cc(O)ccc12 [Compound 13]	1.4e+06 M⁻¹ s⁻¹	–
O=C(O)c1ccc(NCCNCc2ccccn2)cc1-c1c2ccc(=O)cc-2oc2cc(O)ccc12 [Compound 8]	1.6e+06 M⁻¹ s⁻¹	–
